Series [1] relates to Human lymphoblast RPMI 8402 cells. Put plainly: MTT-microtiter plate tetrazolinium cytotoxicity assay (MTA). Format: cell-based. The source says:
The results were plotted and the IC50 then measured.

Series [2] relates to camptothecin-resistant CPT-K5 cells. Put plainly: MTT-microtiter plate tetrazolinium cytotoxicity assay (MTA), camptothecin-resistant cells. As to the method: The IC50 of the drugs tested were determined by the MTT-microtiter plate tetrazolinium cytotoxicity assay (MTA) (Mosmann, T., J. Immunol. Methods 65:55-63 (1983); Denizot et al., J. Immunol. Methods 89:271-277 (1986)). Human lymphoblast RPMI 8402 cells and their camptothecin-resistant CPT-K5 cells (Andoh et al., Proc. Natl. Acad. Sci., USA 84:5565-5569 (1987)) were kindly provided by Dr. Toshiwo Andoh (Aichi Cancer Center Research Institute, Nagoya, Japan). […] Cells (2000 cells/well, seeded in […] growth medium) were grown in suspension at 37°C in 5% CO2 and maintained by regular passage in RPMI medium supplemented with 10% heat inactivated fetal bovine serum, L-glutamine (2 mM), penicillin (100 U/ml), and streptomycin (0.1 mg/ml). The cells were exposed continuously for 4 days to different drug concentrations, and assayed at the end of the fourth day. Each concentration and the no drug control were repeated at least twice in 6 replica wells. The results were plotted and the IC50 then measured. The drug sensitive human epidermoid carcinoma KB 3-1 cell line and its vinblastine-selected multidrug-resistant variant KB-V1 cells (Akiyama et al., Genetics 11:117-126 (1985)) were kindly provided by Dr. Michael Gottesmann (National Cancer Institute). They were grown as monolayer cultures at 37°C in 5% CO2 and maintained by regular passage in Dulbecco's minimal essential medium supplemented with 10% heat inactivated fetal bovine serum. KB-V1 cells were maintained in the presence of […] vinblastine.

A further series addresses T1, human topoisomerase I (Homo sapiens, UniProt P11387).
T1 construct: 15 amino acid vector-derived fusion (pET-11a leader); made in house; host or cells: E. coli BL21(DE3)
T1 sequence (P11387 1-765): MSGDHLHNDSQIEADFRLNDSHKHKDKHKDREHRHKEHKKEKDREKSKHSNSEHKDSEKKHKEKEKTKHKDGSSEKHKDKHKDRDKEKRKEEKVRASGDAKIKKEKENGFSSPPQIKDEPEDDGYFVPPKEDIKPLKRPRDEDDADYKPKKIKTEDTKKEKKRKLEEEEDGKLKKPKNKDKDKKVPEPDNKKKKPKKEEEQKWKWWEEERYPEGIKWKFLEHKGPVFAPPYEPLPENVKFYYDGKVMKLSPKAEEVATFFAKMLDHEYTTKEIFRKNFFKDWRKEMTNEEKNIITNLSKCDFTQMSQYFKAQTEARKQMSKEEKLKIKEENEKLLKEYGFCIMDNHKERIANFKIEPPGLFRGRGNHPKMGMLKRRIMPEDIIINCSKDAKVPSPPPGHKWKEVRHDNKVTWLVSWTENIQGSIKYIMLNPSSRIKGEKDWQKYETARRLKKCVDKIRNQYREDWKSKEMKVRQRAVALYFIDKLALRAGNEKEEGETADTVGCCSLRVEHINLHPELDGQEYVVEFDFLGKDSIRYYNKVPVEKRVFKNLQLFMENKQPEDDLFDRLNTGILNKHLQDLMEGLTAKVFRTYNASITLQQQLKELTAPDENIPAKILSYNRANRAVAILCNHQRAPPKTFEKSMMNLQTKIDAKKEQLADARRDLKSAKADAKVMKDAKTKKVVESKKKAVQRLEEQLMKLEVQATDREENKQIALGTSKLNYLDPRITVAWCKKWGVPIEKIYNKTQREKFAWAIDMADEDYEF
Put plainly: Topo I cleavage assay (plasmid YEpG DNA). Format: biochemical. As to conditions: concentration relative to camptothecin (CPT) = 1 producing the same cleavage on the plasmid DNA. From the text: To obtain large quantity of human topoisomerase I, the human topoisomerase I cDNA was cloned into the pET-11a vector, in which transcription of the cDNA is under the control of the inducible T7 promoter (Studier et al., Methods in Enzymol., Vol. 185:60-89, San Diego: Academic Press (1990)). Briefly, a 3.4 kb DNA fragment containing the entire coding sequence of human topoisomerase I and approximately 1 kb of untranslated region downstream of the stop codon was isolated from the plasmid YCpGAL1-hTOP1 (Bjornsti et al., Cancer Res. 49:6318-6323 (1989)) by cutting at the BamHI and EcoRI sites. The vector pET-11a was cut with the same restriction enzymes, dephosphorylated and ligated to the insert in the proper reading-frame downstream of the vector cloning site. The ligation mixture was used to transform E. coli, the correct clone pET1B was isolated (see figure 2A for the map) and its identity confirmed by restriction mapping. Since the translational start in pET is positioned at an upstream NdeI site, the expressed topoisomerase I has a 15 amino acid fusion at its N-terminus. pET1B was then transformed into E. coli BL21(DE3), and, upon induction with 0.4 mM IPTG for 1 hour, the bacterial lysate was analyzed by 10 % SDS-PAGE. Expression was confirmed by Western blotting using rabbit antibodies against human topoisomerase I. Isolation of the expressed protein was done by a simple procedure. Briefly, E. coli cells were lysed by repeated sonic bursts. The sonic extract was made in 1 M NaCl and 6% polyethylene glycol (PEG) to remove nucleic acids. The PEG supernatant was chromatographed directly on a hydroxyapatite column. Expressed human DNA topoisomerase I was eluted at the 0.6 M potassium phosphate step. The eluted enzyme was dialyzed against 50% glycerol, 30 mM potassium phosphate (pH 7.0), 1 mM dithiothreitol (DTT) and 0.1 mM EDTA and stored at -20°C.
(§1) Cleavage assays for the recombinant topoisomerases I and calf thymus topoisomerases I and II were done as described (Liu et al., J. Biol. Chem. 258:15365-15370 (1983)). The plasmid YEpG DNA used for the cleavage assays was prepared and labeled at its 3'-end using the published procedures.

For series [3], the system named is calf thymus topoisomerase II. The series is described as follows: Topo II cleavage assay (plasmid YEpG DNA). Format: biochemical. As to conditions: concentration relative to VM-26 = 1 producing the same cleavage on the plasmid DNA.
Excerpt: The plasmid pET11a and the E. coli strain BL21(DE3) used for enzyme expression were purchased from Novagen. IPTG was purchased from Sigma. The ECL system used for the Western blotting analysis of bacterial lysates was from Amersham (UK). All the restriction enzymes and Vent polymerase were from New England Biolabs. Mammalian topoisomerase II was isolated from calf thymus glands according to the published procedure (Halligan et al., J. Biol. Chem. 260:2475-2482 (1985)). The single copy yeast plasmids YCpGAL1 expressing various topoisomerase I genes in JN2-134 yeast strain were a kind gift of Dr. M-A. Bjornsti (Thomas Jefferson University, Philadelphia, PA). All bacterial and yeast media were from Difco (Detroit, MI), while cell culture media were purchased from Gibco-BRL (Gaithersburg, MD).
as §1

Setting [4] is: Homo sapiens, RPMI 8402, 96 h, read-out: Cytotoxicity IC50 RPMI.
Where [5] appears, read: Homo sapiens, CPT-K5, 96 h, read-out: Cytotoxicity IC50 CPT-K5.

Read-outs that look alike come from different tables or passages of the source. Bounds are passed on as bounds.

For “6,7-Dihydroxy-1,2-dimethyl-3-(3, 4-dihydroxyphenyl)isoquinolinium methosulfate [Compound 15]”, the “cytotoxicity against RPMI 8402 cells (in words)” value in series [1] is “appreciable cytotoxicity”. Further, the IC50 is 7.3 µM in series [1] (rpmi 8402 cells, 96 h) and above 122 µM in series [2] (cpt-k5 cells, 96 h). Also, the “Topo I-mediated DNA cleavage (REC, Relative Effective Concentration)” value at human topoisomerase I is reported as 1000. In addition, the “Topo II-mediated DNA cleavage (REC, Relative Effective Concentration)” value in series [3] is reported as above 1000.

On to “6,7-Dimethoxy-1,2-dimethyl-3-(3, 4-methylenedioxyphenyl)isoquinolinium methosulfate [Compound 14b]”, for which the “cytotoxicity against RPMI 8402 cells (in words)” value in series [1] is “appreciable cytotoxicity”. The IC50 in series [1] (rpmi 8402 cells, 96 h) came to 6.7 µM; in series [2] (cpt-k5 cells, 96 h), 11 µM. Also, on human topoisomerase I, the “Topo I-mediated DNA cleavage (REC, Relative Effective Concentration)” value is on record as 1000. For the same compound, the “Topo II-mediated DNA cleavage (REC, Relative Effective Concentration)” value in series [3] is given as 1000.

Regarding “6,7-Dimethoxy-1, 2-dimethyl-3-(3, 4-dimethoxyphenyl)isoquinolinium methosulfate [Compound 14a]”, the IC50 stood at 43 µM in series [1] (rpmi 8402 cells, 96 h) and 39 µM in series [2] (cpt-k5 cells, 96 h). Besides, the “Topo I-mediated DNA cleavage (REC, Relative Effective Concentration)” value at human topoisomerase I is above 1000. Also, in series [3], the “Topo II-mediated DNA cleavage (REC, Relative Effective Concentration)” value was above 1000.

Regarding “8-Methyl-2,3,10,11-Tetramethoxydibenzo[a,g]quinolizinium acetosulfate [Compound 2a]”, the IC50 was 4.9 µM in series [1] (rpmi 8402 cells, 96 h) and 20 µM in series [2] (cpt-k5 cells, 96 h). Further, at human topoisomerase I, the “Topo I-mediated DNA cleavage (REC, Relative Effective Concentration)” value is listed as 10. The “Topo II-mediated DNA cleavage (REC, Relative Effective Concentration)” value in series [3] is above 1000.

As to “8-Methyl-3,4,10,11-tetramethoxydibenzo[a,g]quinolizinium acetosulfate [Compound 2b]”, the half-maximal inhibitory concentration (IC50) is 0.4 µM in series [1] (rpmi 8402 cells, 96 h) and 2 µM in series [2] (cpt-k5 cells, 96 h). Also, at human topoisomerase I, the “Topo I-mediated DNA cleavage (REC, Relative Effective Concentration)” value was above 1000. Also, the “Topo II-mediated DNA cleavage (REC, Relative Effective Concentration)” value in series [3] turned out to be 100.

For the compound `COc1cc2cc3c4ccc5c(c4cc[n+]3c(C)c2cc1OC)OCO5` [Compound 2c, 8-Methyl-3,4-methylenedioxy-10,11-dimethoxydibenzo[a,g]quinolizinium acetosulfate], the IC50 was 2 µM in series [1] (setting [4]) and 41 µM in series [2] (setting [5]). Further, the “Topo I-mediated DNA cleavage (REC, Relative Effective Concentration)” value at human topoisomerase I was determined as 10. The “Topo II-mediated DNA cleavage (REC, Relative Effective Concentration)” value in series [3] was 10.

With `COc1cc2c(cc1OC)-c1cc3cc(OC)c(OC)cc3c(C)[n+]1CC2` [Compound 7a, 5,6-Dihydro-8-methyl-2,3,10,11-tetramethoxydibenzo[a,g]quinolizinium acetosulfate], the results for the IC50 in series [1] (setting [4]) and in series [2] (setting [5]) were 5.9 µM and above 20 µM, respectively. Besides, the “Topo I-mediated DNA cleavage (REC, Relative Effective Concentration)” value on human topoisomerase I is on record as 5. For the same compound, in series [3], the “Topo II-mediated DNA cleavage (REC, Relative Effective Concentration)” value was above 1000.

In the case of `COc1cc2cc3[n+](c(C)c2cc1OC)CCc1c-3ccc(OC)c1OC` [Compound 7b, 5,6-Dihydro-8-methyl-3,4,10,11-tetramethoxydibenzo[a,g]quinolizinium acetosulfate], the values for the IC50 in series [1] (setting [4]) and in series [2] (setting [5]) were 6.9 µM and 14 µM, respectively. In addition, the “Topo I-mediated DNA cleavage (REC, Relative Effective Concentration)” value at human topoisomerase I is 1000. Besides, in series [3], the “Topo II-mediated DNA cleavage (REC, Relative Effective Concentration)” value amounted to 1000.

`COc1cc2c(cc1OC)-c1cc3cc(OC)c(OC)cc3c[n+]1CC2.[Cl-]` [Compound 8a, 5,6-Dihydro-2,3,10,11-tetramethoxydibenzo[a,g]quinolizinium chloride]: the IC50 in series [1] (setting [4]) was found to be 10 µM; in series [2] (setting [5]), 18 µM. In addition, on human topoisomerase I, the “Topo I-mediated DNA cleavage (REC, Relative Effective Concentration)” value amounted to 20. Moreover, the “Topo II-mediated DNA cleavage (REC, Relative Effective Concentration)” value in series [3] was above 1000.

Regarding `COc1ccc(-c2cc3cc(OC)c(OC)cc3c(C)n2)cc1OC` [Compound 12a, 6,7-Dimethoxy-1-methyl-3-(3,4-dimethoxyphenyl)isoquinoline], the results for the IC50 in series [1] (setting [4]) and in series [2] (setting [5]) were 13 µM and 24 µM, respectively. Also, the “Topo I-mediated DNA cleavage (REC, Relative Effective Concentration)” value at human topoisomerase I is above 1000.

One may read the IC50 as the concentration that inhibits the measured activity by half.
